Earlier results as cited in EP0268927A2, “Resin-coated, non-sorptive granular, pesticidal compositions and method for the preparation thereof” (priority 1986, dated 1988).

System: rats
Details: technical grade

Structure (SMILES): CCOP(=S)(OCC)SCSCC [phorate, 0,0-diethyl-S-(ethylthiomethyl)phosphorodithioate]
- acute oral LD50 value in rats: 1.6-3.7 mg technical/kg
